Type in all cases: in vivo
Experiment [1] has as its system high fat diet-induced insulin resistance model with C57/BL 6J mice. Description: Body weight in high fat diet-induced insulin resistance model. The text has this: Evaluation of effect of different fractions of Costus pictus D. Don on high fat diet-induced insulin resistance model with C57/BL 6J mice.
(§1) The study was designed to evaluate the effect of different fractions of Costus pictus D. Don on high fat-induced resistance Type 2diabetic model (HFD). Six week-old C57B1/6J mice were allowed free access to food and water. They were housed under identical standard conditions. The animals were kept for acclimatization for a period of 7 days. After 7 days, the mice were randomly divided into six groups of six mice each. The normal control group was treated with normal regular diet and the rest of the animals were fed with high fat diet for 6 weeks. After 6 weeks, methanolic extract of fresh leaves of Costus pictus D. Don, and the extract had low oxalic acid and/or oxalates content, silica purified ethyl acetate extract of methanolic extract of fresh leaves of Costus pictus D. Don where the extract had low oxalic acid and/or oxalates content and ethyl acetate extract of 90% methanolic extract of fresh leaves of Costus pictus D. Don where the extract had low oxalic acid and/or oxalates content were administered at 40 mg/kg p.o. for 6 consecutive weeks. The experimental design was as follows:
Group 3—HFD for 6 weeks and Standard drug treated group for 6 weeks—metformin.
Group 4—HFD for 6 weeks and methanolic extract of fresh leaves of Costus pictus D. Don where the extract had low oxalic acid and/or oxalates content (Sample 2 prepared as per example 1) at 40 mg/kg orally for 6 weeks.
Group 5—HFD for 6 weeks and silica purified ethyl acetate extract of 90% methanolic extract of fresh leaves of Costus pictus D. Don where the extract had low oxalic acid and/or oxalates content (Sample 5 prepared as per example 4) at 40 mg/kg orally for 6 weeks.
Group 6—HFD for 6 weeks and ethyl acetate extract of 90% methanol extract of fresh leaves of Costus pictus D. Don where the extract had low oxalic acid and/or oxalates content (Sample 4 prepared as per example 3) at 40 mg/kg orally for 6 weeks.
(§2) Body weights were determined biweekly. At the end of experimental period, blood samples were collected to determine plasma glucose, insulin, leptin, glycosylated hemoglobin, triglycerides, total cholesterol, LDL, HDL and VLDL.

Experiment [2] shares this test system. The experiment in a line: Blood glucose in high fat diet-induced insulin resistance model. To be noted: HFD mice, end of experimental period; extracts 40 mg/kg orally for 6 weeks, metformin as standard drug. On the procedure: as §1, §2
Experiment [3] has the same test system. Description: Lipid profile in high fat diet-induced insulin resistance model. The following applies: high fat diet induced diabetes mellitus, extracts 40 mg/kg orally for 6 weeks, metformin as standard drug. On the procedure:
The study was designed to evaluate the effect of different fractions of Costus pictus D. Don on high fat-induced resistance Type 2diabetic model (HFD). Six week-old C57B1/6J mice were allowed free access to food and water. They were housed under identical standard conditions. The animals were kept for acclimatization for a period of 7 days. After 7 days, the mice were randomly divided into six groups of six mice each. The normal control group was treated with normal regular diet and the rest of the animals were fed with high fat diet for 6 weeks. […] The experimental design was as follows:
as §2

Experiment [4] has the same test system. Description: Serum insulin and glycosylated hemoglobin in high fat diet-induced insulin resistance model. To be noted: high fat diet induced diabetes mellitus, extracts 40 mg/kg orally for 6 weeks, metformin as standard drug. On the procedure: as §1, §2

In the case of `CN(C)C(=N)N=C(N)N` [metformin], in experiment [1] (C57/BL 6J mice on high fat diet, week 0, before treatment), the “Body weight, week 0” value is on record as 15 grams. For the same compound, the “Body weight, week 2” value in experiment [1] (C57/BL 6J mice on high fat diet, week 2, before treatment) is given as 30 grams. The “Body weight, week 4” value in experiment [1] (C57/BL 6J mice on high fat diet, week 4, before treatment) is recorded as 46 grams. In addition, the “Body weight, week 6” value in experiment [1] (C57/BL 6J mice on high fat diet, week 6, start of treatment) is recorded as 61 grams. Further, the “Body weight, week 8” value in experiment [1] (HFD mice, week 8, extracts 40 mg/kg orally from week 6, metformin as standard drug) is listed as 48 grams. In addition, the “Body weight, week 10” value in experiment [1] (HFD mice, week 10, extracts 40 mg/kg orally from week 6, metformin as standard drug) was determined as 35 grams. Moreover, in experiment [1] (HFD mice, week 12, extracts 40 mg/kg orally from week 6, metformin as standard drug), the “Body weight, week 12” value is 35 grams. For the same compound, the Blood glucose in experiment [2] was determined as 100 mg/dL. In experiment [3], this compound showed an HDL of 99 mg/dL, an LDL of 17 mg/dL and a VLDL of 6 mg/dL. Moreover, the TC in experiment [3] (total cholesterol) was found to be 122 mg/dL. Moreover, the TG in experiment [3] (triglycerides) worked out at 30 mg/dL. Besides, the “Glycosylated Hb” value in experiment [4] was 0.5 % of total Hb. Besides, in experiment [4] (serum), the Insulin was found to be 1.7 ng/mL.
